Data on 7 molecules can be found in PMC10600881 (ACS Omega, 2023).

In brackets after ≈: the same amount, converted by molar mass. Where two headings read alike, the source gives them in different places.

The subject of test [1] is M. tuberculosis (RCMB 010126). The experiment in a line: Microplate alamar blue assay. The format is cell-based, Mycobacterium tuberculosis. As to conditions: Mycobacterium tuberculosis, RCMB010126, sensitive Mycobacterium tuberculosis (RCMB 010126), MABA. A general note: The colour change of resazurin is a common sign of viable cells or microbes.
For another test, the system named is E. coli (ATCC25922). The experiment in a line: Broth microdilution assay, MIC. Type of test: cell-based. The settings on record: Escherichia coli, ATCC25922, read-out: Minimum Inhibitory Concentration. For orientation: Broth dilution looks for growth in wells or tubes with falling amounts of substance.
The next test concerns S. aureus (ATCC 25923). Nature of the test: Broth microdilution assay, MIC. The settings on record: Staphylococcus aureus, ATCC25923, read-out: Minimum Inhibitory Concentration. The format is cell-based.
For a further test, the system named is B. subtilis (ATCC 9372). The experiment in a line: Broth microdilution assay, MIC. Type of test: cell-based. As to conditions: Bacillus subtilis, ATCC9372, read-out: Minimum Inhibitory Concentration.
Another test deals with C. albicans (ATCC 10231). The experiment in a line: Broth microdilution assay, antifungal MIC/MFC. The settings on record: for ratio (MFC/MIC): C. albicans (ATCC 10231); for MFC / MIC: Candida albicans. The format is cell-based, Candida albicans.
The test system of test [2] is P. aeruginosa (ATCC 29853). The experiment in a line: Broth microdilution assay, MIC/MBC. The format is cell-based. The settings on record: for fold more efficient than amoxicillin / bactericidal or bacteriostatic effect: P. aeruginosa; for fold more efficient than amoxicillin: from MICs; for MBC / MIC: Pseudomonas aeruginosa; for bactericidal or bacteriostatic effect: MBC/MIC ≤ 4 = bactericidal.

Where [3] appears, read: ATCC10231, read-out: Minimum Inhibitory Concentration.
Where [4] appears, read: ATCC29853, read-out: Minimum Inhibitory Concentration.

With `COc1ccc(C=C2SC(N3N=C(c4cccs4)CC3c3cccs3)=NC2=O)cc1` (centres unmarked) [8a, 5-(4-Methoxybenzylidene)-2-(4,5-dihydro-3,5-di(thiophen-2-yl)pyrazol-1-yl)thiazol-4(5H)-one], the MIC in test [1] was 31.2 µg/mL (≈ 69.2 µM); in the test with E. coli (ATCC25922), 125 µg/mL (≈ 277 µM); in the test on S. aureus (ATCC 25923), 250 µg/mL (≈ 554 µM); in the test with B. subtilis (ATCC 9372) it was 125 µg/mL (≈ 277 µM); with C. albicans (ATCC 10231) (ATCC10231) it was 62.5 µg/mL (≈ 138 µM); in the test on C. albicans (ATCC 10231) (setting [3]) it was 62.5 µg/mL (≈ 138 µM). Also, the MIC in test [2] (ATCC29853) and in test [2] (setting [4]) was 31.2 µg/mL (≈ 69.2 µM) throughout. Besides, the “ratio (MFC/MIC)” value in the test on C. albicans (ATCC 10231) amounted to 2. In addition, the MFC (commonly the lowest tested concentration that kills the fungus rather than only halting it) against C. albicans (ATCC 10231) (ATCC10231) turned out to be 125 µg/mL (≈ 277 µM). Also, the “ratio (MBC/MIC)” value in test [2] (P. aeruginosa (ATCC 29853)) came to 8. For the same molecule, the “fold more efficient than amoxicillin” value in test [2] was ~16 fold. Moreover, the MBC (usually the smallest concentration meeting the test's criterion for killing) in test [2] (ATCC29853) was 250 µg/mL (≈ 554 µM).
Take `c1ccc(-c2csc(N3N=C(c4cccs4)CC3c3cccs3)n2)cc1` (centres unmarked) [4a, 4,5-Dihydro-1-(4-phenylthiazol-2-yl)-3,5-di(thiophen-2-yl)-1H-pyrazole]: the MIC in test [1] was found to be 62.5 µg/mL (≈ 159 µM); in the test with E. coli (ATCC25922), 125 µg/mL (≈ 318 µM); in the test on S. aureus (ATCC 25923) it was 250 µg/mL (≈ 635 µM); with B. subtilis (ATCC 9372) it was 15.6 µg/mL (≈ 39.7 µM); in the test with C. albicans (ATCC 10231) (ATCC10231), 125 µg/mL (≈ 318 µM); with C. albicans (ATCC 10231) (setting [3]) it was 125 µg/mL (≈ 318 µM). In addition, the MIC in test [2] (ATCC29853) and in test [2] (setting [4]) was 125 µg/mL (≈ 318 µM) throughout. Moreover, in the test with C. albicans (ATCC 10231), the “ratio (MFC/MIC)” value stood at 4. Further, in the test on C. albicans (ATCC 10231) (ATCC10231), the MFC amounted to 500 µg/mL (≈ 1270 µM). In test [2] (P. aeruginosa (ATCC 29853)), the “ratio (MBC/MIC)” value worked out at 4. For the same molecule, the “bactericidal or bacteriostatic effect” value in test [2] is recorded as “bactericidal”. The MBC in test [2] (ATCC29853) worked out at 500 µg/mL (≈ 1270 µM).
With `CCOC(=O)c1sc(N2N=C(c3cccs3)CC2c2cc(OC)ccc2OC)nc1C` (centres unmarked) [5b, Ethyl 2-(4,5-dihydro-5-(2,5-dimethoxyphenyl)-3-(thiophen-2-yl)pyrazol-1-yl)-4-methylthiazole-5-carboxylate], the MIC was determined as 31.2 µg/mL (≈ 68.3 µM) in test [1]; 125 µg/mL (≈ 273 µM) in the test with E. coli (ATCC25922); 62.5 µg/mL (≈ 137 µM) in the test with S. aureus (ATCC 25923); 125 µg/mL (≈ 273 µM) in the test on B. subtilis (ATCC 9372); 62.5 µg/mL (≈ 137 µM) in the test on C. albicans (ATCC 10231) (ATCC10231); 62.5 µg/mL (≈ 137 µM) in the test on C. albicans (ATCC 10231) (setting [3]). Further, the MIC in test [2] (ATCC29853) and in test [2] (setting [4]) was 31.2 µg/mL (≈ 68.3 µM) throughout. For the same molecule, in the test on C. albicans (ATCC 10231), the “ratio (MFC/MIC)” value is 2. The same molecule yielded an MFC against C. albicans (ATCC 10231) (ATCC10231) of 125 µg/mL (≈ 273 µM). For the same molecule, the “ratio (MBC/MIC)” value in test [2] (P. aeruginosa (ATCC 29853)) turned out to be 2. In test [2], the “fold more efficient than amoxicillin” value is on record as ~16 fold. Moreover, the “bactericidal or bacteriostatic effect” value in test [2] is “bactericidal”. The MBC in test [2] (ATCC29853) turned out to be 62.2 µg/mL (≈ 136 µM).
For `CCOC(=O)c1sc(N2N=C(c3cccs3)CC2c2cccs2)nc1C` (centres unmarked) [5a, Ethyl 2-(4,5-dihydro-3,5-di(thiophen-2-yl)pyrazol-1-yl)-4-methylthiazole-5-carboxylate], the MIC in test [1] was 31.2 µg/mL (≈ 77.4 µM); in the test with E. coli (ATCC25922) it was > 500 µg/mL; in the test with S. aureus (ATCC 25923) it was 62.5 µg/mL (≈ 155 µM); with B. subtilis (ATCC 9372), 3.9 µg/mL (≈ 9.66 µM); against C. albicans (ATCC 10231) (ATCC10231) it was 125 µg/mL (≈ 310 µM); in the test with C. albicans (ATCC 10231) (setting [3]) it was 125 µg/mL (≈ 310 µM). In addition, the MIC in test [2] (ATCC29853) and in test [2] (setting [4]) was > 500 µg/mL each time. In the test with C. albicans (ATCC 10231), the “ratio (MFC/MIC)” value came to 4. The same molecule had an MFC in the test with C. albicans (ATCC 10231) (ATCC10231) of 500 µg/mL (≈ 1240 µM). Besides, the “ratio (MBC/MIC)” value in test [2] (P. aeruginosa (ATCC 29853)) is recorded as >1. Moreover, in test [2] (ATCC29853), the MBC is > 500 µg/mL.
In test [1], `NNC(=O)c1ccncc1` [isoniazid, reference compound] returned an MIC of 0.12 µg/mL (≈ 0.875 µM).
For the molecule `CC1(C)S[C@@H]2[C@H](NC(=O)[C@H](N)c3ccc(O)cc3)C(=O)N2[C@H]1C(=O)O` [amoxicillin, reference compound], the MIC with E. coli (ATCC25922) is 62.5 µg/mL (≈ 171 µM); with S. aureus (ATCC 25923), 7.8 µg/mL (≈ 21.3 µM); in the test with B. subtilis (ATCC 9372), 31.2 µg/mL (≈ 85.5 µM); in test [2] (ATCC29853) it was > 500 µg/mL; in test [2] (setting [4]), > 500 µg/mL. For the same molecule, the “ratio (MBC/MIC)” value in test [2] (P. aeruginosa (ATCC 29853)) was >1. The “Minimum Inhibitory Concentration” value in test [2] (P. aeruginosa (ATCC 29853), Gram-negative, Table 1) was >500 µg/mL. In test [2] (ATCC29853), the MBC was > 500 µg/mL.
For the molecule `OC(Cn1cncn1)(Cn1cncn1)c1ccc(F)cc1F` [fluconazole, reference compound], the “ratio (MFC/MIC)” value in the test with C. albicans (ATCC 10231) came to 1. This molecule had an MFC against C. albicans (ATCC 10231) (ATCC10231) of 250 µg/mL (≈ 816 µM). For the same molecule, the MIC in the test with C. albicans (ATCC 10231) (ATCC10231) and in the test on C. albicans (ATCC 10231) (setting [3]) was 250 µg/mL (≈ 816 µM) throughout.
